In patent publication US8357687B2, “Macrocyclic indole derivatives useful as hepatitis C virus inhibitors” (priority 2008, dated 2013):

Columns and labels:
[1] = system: NS5B chimeric replicon of clinical isolate 1a_H77 in Huh7-cure cells; assay: Transient replicon assay, chimeric replicon of clinical isolate 1a_H77 (CI1); type: cell-based, HCV genotype 1a; settings: Hepatitis C virus, 48 h, read-out: EC50-T CI1
[2] = system: NS5B chimeric replicon of clinical isolate 1a—6 in Huh7-cure cells; assay: Transient replicon assay, chimeric replicon of clinical isolate 1a—6 (CI2); type: cell-based, HCV genotype 1a; settings: Hepatitis C virus, 48 h, read-out: EC50-T CI2
[3] = system: wild type replicon of genotype 1b (con1b) in Huh7-cure cells; assay: Transient replicon assay, wild type replicon of genotype 1b (Con1b); type: cell-based, HCV genotype 1b; settings: Hepatitis C virus, transient wild type replicon genotype 1b, 48 h, luciferase, read-out: EC50-T Con1b
[4] = molecular target: T1, HCV NS5B polymerase (NS5BΔC21) (Hepatitis C virus genotype 1b, UniProt Q9WMX2); assay: RNA-dependent RNA polymerase assay (enzyme inhibition assay); type: biochemical, HCV (genotype 1b consensus strain Con1)
T1 construct: NS5B (genotype 1b consensus strain Con1) lacking 21 C-terminal residues; made in house; host or cells: E. coli Rosetta 2 (DE3)
Source text: The coding sequence for NS5B (genotype 1b consensus strain Con1) lacking 21 C-terminal residues was amplified from plasmid pFKI389/ns3-3′ (Genbank accession no. AJ242654), plasmid pCV-H77C (Genbank accession no. AF 011751.1) and subcloned into the pET21b plasmid as described previously (Pauwels et al. J. Virol., 2007). The NS5BΔC21 expression constructs were transformed into E. coli Rosetta 2 (DE3) (Novagen, Madison, Wis.). One hundred milliliters of LB-medium supplemented with carbenicillin (50 μg/mL) and chloramphenicol (34 μg/mL) was inoculated with one colony, grown overnight, and transferred to fresh LB-medium supplemented with 3% ethanol, carbenicillin and chloramphenicol, at a ratio of 1:200. Cells were grown to an optical density at 600 nm of 0.6, after which the expression cultures were shifted to a growth temperature of 20° C. following induction with ispopropyl-1-thio-β-D-galactopyranoside and MgCl2 at a final concentration of 0.4 mM and 10 μM, respectively. After 18 h of induction, cells were harvested by centrifugation and resuspended in 20 mM Tris-HCl, pH 7.5, 300 mM NaCl, 10% glycerol, 0.1% NP40, 4 mM MgCl2, 5 mM DTT supplemented with EDTA-free Complete Protease Inhibitor (Roche, Basel, Switzerland). Cell suspensions were disrupted by sonication and incubated with 10-15 mg/L of DNase I (Roche, Basel, Switzerland) for 30 min. Cell debris was removed through ultracentrifugation at 30,000×g for 1 hour and clarified cell lysate was flash frozen and stored at −80° C. prior to purification.
Clarified cell lysate was thawed and subsequently loaded onto a 5 mL pre-packed HisTrap FF column equilibrated with 25 mM HEPES, pH 7.5, 500 mM NaCl, 10% glycerol and 5 mM DTT. Proteins were eluted with 500 mM imidazole at a flow rate of 1 mL/min. Fractions containing the protein of interest were applied onto a pre-packed 26/10 HiPrep Desalting Column equilibrated with 25 mM HEPES, pH 7.5, 250 mM NaCl, 10% glycerol and 5 mM DTT. The buffer-exchanged NS5B peak was then applied onto a 6 ml Resource S column. Protein was eluted with an increasing salt gradient and fractions collected. Protein purity was assessed on Nu-PAGE pre-cast gels (Invitrogen, Carlsbad, Calif.). Purified NS5B samples were concentrated using Centri-Prep concentrators (Millipore, Billerica, Mass., USA) and protein concentrations were determined by spectrofotometry with the Nanodrop (Nanodrop Technologies, Wilmington, Del., USA).
Measurement of HCV NS5B polymerization activity was performed by evaluating the amount of radio labeled GTP incorporated by the enzyme in a newly synthesized RNA using […] RNA template/primer. The RdRp assay was carried out in 384-well plates. 2.5 nM of purified NS5B enzyme was pre-incubated for 10 min with 150 nM 5′-biotinylated oligo(rG13) primer, 15 nM poly(rC) template, in 18 mM Tris-HCl, pH 7.5, 5 mM MgCl2, 20.5 mM KCl, 17 mM NaCl and 2.5 mM of DTT. The test compounds were the added to the preformed polymerase-template complex, and incubated at room temperature for 15 min before the addition 600 nM of GTP, and 0.13 μCi of [^3H]GTP. 30 μL reaction mixture was incubated at room temperature for 2 h before stopping the reaction by adding 30 μL of streptavidin coated SPA-beads (GE Healthcare, Uppsala, Sweden) in 0.5 M EDTA. […] IC50 values represent the concentration of compound required to decrease by 50% the amount of RNA produced which is measured by the detection of incorporated radiolabeled GTP.

[5] = molecular target: T2, NS5B wild-type enzyme genotype 1a (Hepatitis C virus genotype 1a, UniProt P27958); assay: Enzyme binding assay (SPR, Biacore), genotype 1a; set-up: species or system HCV genotype 1a; settings: for kon / t1/2 (dissociative half-life): genotype 1a; for kon: SPR, 25° C.; for t1/2 (dissociative half-life): t1/2=ln(2)/koff
T2 construct: The purified HIS6-tagged NS5BΔC21 polymerases were immobilized; made in house; host or cells: E. coli Rosetta 2 (DE3)
T2 sequence (P27958 2421-2990): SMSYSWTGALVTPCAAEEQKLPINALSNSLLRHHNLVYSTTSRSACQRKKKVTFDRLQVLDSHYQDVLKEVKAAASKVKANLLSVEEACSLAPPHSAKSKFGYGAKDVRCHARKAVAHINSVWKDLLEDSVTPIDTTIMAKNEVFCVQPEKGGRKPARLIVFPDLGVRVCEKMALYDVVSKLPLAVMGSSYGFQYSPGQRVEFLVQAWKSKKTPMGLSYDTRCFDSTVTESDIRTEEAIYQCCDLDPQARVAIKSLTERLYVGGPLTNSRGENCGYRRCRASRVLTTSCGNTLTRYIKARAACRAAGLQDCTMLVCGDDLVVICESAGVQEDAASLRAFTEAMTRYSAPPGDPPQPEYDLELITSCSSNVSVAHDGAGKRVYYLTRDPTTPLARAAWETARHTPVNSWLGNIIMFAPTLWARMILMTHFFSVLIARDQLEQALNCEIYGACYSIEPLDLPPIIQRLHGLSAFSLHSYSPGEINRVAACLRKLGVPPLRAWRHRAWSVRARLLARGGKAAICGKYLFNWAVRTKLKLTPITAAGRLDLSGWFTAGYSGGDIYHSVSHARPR
Procedure: (§1) The compounds of formula (I) were examined for their enzymatic binding kinetics or affinity using a Surface Plasmon Resonance (SPR)-based method, i.e. Biacore. A slow dissociation of the inhibiting compound from its viral target (low koff, low Kd) is believed to potentially reduce the development of drug resistance against anti-viral drugs (Dierynck et al. 2007. Journal of Virology, vol. 81, No. 24, 13845-13851). All measurements were performed on a Biacore T100 instrument (GE Healthcare). The purified HIS6-tagged NS5BΔC21 polymerases were immobilized using non-covalent capturing to an NTA sensor chip (GE Healthcare) in immobilization buffer (20 mM MOPS pH 7.4, 500 mM NaCl, 0.005% Tween-P20, 1 mM DTT, 50 μM EDTA). Interaction studies were all performed at 25° C. Inhibitors were serially diluted in running buffer (20 mM Tris-HCl pH 7.4, 150 mM NaCl, 50 μM EDTA, 1 mM DTT, 0.005% Tween-P20) containing 5% dimethyl sulfoxide (DMSO). Single-cycle kinetics were used, in which 5 increasing concentrations of compound were injected for a period of 300 s each in 1 single cycle, and dissociation was monitored for a period of 1200 s. The sensor surface was completely regenerated in between the cycles. Data were analyzed using simultaneous nonlinear regression analysis (global fitting) adapted for single-cycle kinetics with Biacore T100 BiaEval evaluation software 2.0 (GE Healthcare). The individual rate constants kon and koff and a derived affinity constant, Kd=koff/kon, were determined by a kinetic evaluation of the sensorgrams. The kinetic models accounted for bulk and limited mass transport effects. Every analysis was performed at least in two independent experiments. The dissociation rate of a kinetic interaction can be translated into a compound residence time (dissociative half-life t1/2=ln(2)/koff) representative for the interaction time between the polymerase and its inhibitor.
(§2) The observed association rate constants (kon), dissociation rate constants (koff), derived affinity constant (Kd) and dissociative half-life (t1/2) measured for compounds of formula (I) or subgroups thereof on NS5B wild-type enzyme genotypes 1a, 1b and 4a are given in Table 2.

[6] = molecular target: T3, NS5B wild-type enzyme genotype 4a (UniProt O39929); assay: Enzyme binding assay (SPR, Biacore), genotype 4a; set-up: species or system HCV genotype 4a; settings: for Kd: Kd=koff/kon; for koff / kon: SPR, 25° C.; for t1/2 (dissociative half-life): t1/2=ln(2)/koff
T3 construct: fused on or other part: His6 tag
Procedure: as §1, §2

[7] = molecular target: T4, NS5B wild-type enzyme genotype 1b (Hepatitis C virus genotype 1b, UniProt Q9WMX2); assay: Enzyme binding assay (SPR, Biacore), genotype 1b; settings: for koff / kon / t1/2 (dissociative half-life): genotype 1b; for koff / kon: SPR, 25° C.; for t1/2 (dissociative half-life): t1/2=ln(2)/koff
T4 construct: NS5B (genotype 1b consensus strain Con1) lacking 21 C-terminal residues; made in house; host or cells: E. coli Rosetta 2 (DE3)
Procedure: as §1, §2

| SMILES | EC50 [1] [nM] | EC50 [2] [nM] | EC50 [3] [nM] | IC50 [4] [nM] | Kd [5] [nM] | koff [5] [s⁻¹] | kon [5] | t1/2 (dissociative half-life) [5] [min] | Kd [6] [nM] | koff [6] [s⁻¹] | kon [6] | t1/2 (dissociative half-life) [6] [min] | Kd [7] [nM] | koff [7] [s⁻¹] | kon [7] | t1/2 (dissociative half-life) [7] [min] |
| --- | --- | --- | --- | --- | --- | --- | --- | --- | --- | --- | --- | --- | --- | --- | --- | --- |
| CN1CCCCNC(=O)COc2ccccc2-c2c(C3CCCCC3)c3ccc(cc3n2C)C(=O)NS1(=O)=O [Compound 32, 24-cyclohexyl-9,18-dimethyl-4,5,6,7,8,9-hexahydro-13,17:16,19-di(metheno)-1,10,4,9,11,18-benzoxathiatetraazacyclohenicosine-3,12(2H,11H,18H)-dione 10,10-dioxide] | 1600 | 2950 | 3610 | 1820 | 3300 | 0.0089 | 3.0E+03 1/MS | 1.3 | 450 | 0.0087 | 1.9E+04 1/MS | 1.33 | 1200 | 0.015 | 1.3E+04 1/MS | 0.783 |
| CN1CCCCCNC(=O)COc2ccccc2-c2c(C3CCCCC3)c3ccc(cc3n2C)C(=O)NS1(=O)=O [Compound 21, 25-cyclohexyl-10,19-dimethyl-5,6,7,8,9,10-hexahydro-2H-14,18:17,20-di(metheno)-1,11,4,10,12,19-benzoxathiatetraazacyclodocosine-3,13(4H,12H,19H)-dione 11,11-dioxide] | 55 | 95 | 123 | 148 |  |  |  |  |  |  |  |  |  |  |  |  |
| CC(C)n1c2c(C3CCCCC3)c3ccc(cc31)C(=O)NS(=O)(=O)N(C)CCOCCN(C)C(=O)COc1ccccc1-2 [Compound 52, 25-cyclohexyl-4,10-dimethyl-19-(1-methylethyl)-5,6,9,10-tetrahydro-2H,8H-14,18:17,20-di(metheno)-1,7,11,4,10,12,19-benzodioxathiatetraazacyclodocosine-3,13 (4H,12H,19H)-dione 11,11-dioxide] | 7140 | 7960 | 7660 | 1660 |  |  |  |  |  |  |  |  |  |  |  |  |
| CN1CCCCCNC(=O)COc2ccc(F)cc2-c2c(C3CCCCC3)c3ccc(cc3n2C)C(=O)NS1(=O)=O [Compound 51, 25-cyclohexyl-22-fluoro-10,19-dimethyl-5,6,7,8,9,10-hexahydro-2H-14,18:17,20-di(metheno)-1,11,4,10,12,19-benzoxathiatetraazacyclodocosine-3,13(4H,12H,19H)-dione 11,11-dioxide] |  |  |  | 88 | 39 | 0.0035 | 9.5E+04 1/MS | 3.3 | 11 | 0.0022 | 1.9E+05 1/MS | 5.33 | 16 | 0.00031 | 2.0E+04 1/MS | 37.38 |
| COc1ccc2c(c1)OCC(=O)N(C)CCCCN(C)S(=O)(=O)NC(=O)c1ccc3c(C4CCCCC4)c-2n(C)c3c1 [Compound 53, 24-cyclohexyl-22-methoxy-4,9,18-trimethyl-4,5,6,7,8,9-hexahydro-13,17:16,19-di(metheno)-1,10,4,9,11,18-benzoxathiatetraazacyclohenicosine-3,12(2H,11H,18H)-dione 10,10-dioxide] | 44 | 66 | 83 |  |  |  |  |  |  |  |  |  |  |  |  |  |
| COc1ccc2c(c1)OCC(=O)N(C)CCOCCN(C)S(=O)(=O)NC(=O)c1ccc3c(C4CCCCC4)c-2n(C)c3c1 [Compound 54, 25-cyclohexyl-23-methoxy-4,10,19-trimethyl-5,6,9,10-tetrahydro-2H,8H-14,18:17,20-di(metheno)-1,7,11,4,10,12,19-benzodioxathiatetraazacyclodocosine-3,13 (4H,12H,19H)-dione 11,11-dioxide] | 67 | 81 | 103 |  |  |  |  |  |  |  |  |  |  |  |  |  |
| CN1CCN2CCN(CC2)C(=O)COc2ccccc2-c2c(C3CCCCC3)c3ccc(cc3n2C)C(=O)NS1(=O)=O [Compound 22, 30-cyclohexyl-12,21-dimethyl-4-oxa-20-thia-1,12,19,21,24-pentaazapentacyclo[22.2.2.1^11,14.1^13,17.0^5,10]triaconta-5,7,9,11(30),13(29),14,16-heptaene-2,18-dione 20,20-dioxide] | 156 | 201 | 164 | 181 |  |  |  |  |  |  |  |  |  |  |  |  |
| CN1CCCCN(C)S(=O)(=O)NC(=O)c2ccc3c(C4CCCCC4)c(n(C4CCCC4)c3c2)-c2ccccc2OCC1=O [Compound 40, 24-cyclohexyl-18-cyclopentyl-4,9-dimethyl-4,5,6,7,8,9-hexahydro-13,17:16,19-di(metheno)-1,10,4,9,11,18-benzoxathiatetraazacyclohenicosine-3,12(2H,11H,18H)-dione 10,10-dioxide] | 5150 | 5270 | 7340 | 1090 |  |  |  |  |  |  |  |  |  |  |  |  |
